Results: the supplement of paper PMC11061612

Assays:
Palbociclib = compound: CC(=O)c1c(C)c2cnc(Nc3ccc(N4CCNCC4)cn3)nc2n(C2CCCC2)c1=O [Palbociclib]; details: max 10 µM
Procedure, shortened: (§1)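 Cancer cell lines were seeded in 1536-well plates in 7.5 μl DMEM/F12 or RPMI with 10% FBS, held 24 hours at 37°C and 5% CO2, then dosed for 72 hours (final DMSO typically 0.2%). Viability was read by CellTiter-Glo 2.0 luminescence and scaled between blank-well and DMSO-well means. The single-agent IC50 comes from dose responses fitted to a two-parameter logistic curve with a non-linear mixed effects model.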

Taselisib = compound: Cc1nc(-c2cn3c(n2)-c2ccc(-c4cnn(C(C)(C)C(N)=O)c4)cc2OCC3)n(C(C)C)n1 [Taselisib]; details: max 10 µM
Procedure, shortened: as §1

Prexasertib = compound: COc1cccc(OCCCN)c1-c1cc(Nc2cnc(C#N)cn2)n[nH]1 [Prexasertib]; details: max 1 µM
Procedure, shortened: as §1

AZD1390 = compound: CC(C)n1c(=O)n(C)c2cnc3cc(F)c(-c4ccc(OCCCN5CCCCC5)nc4)cc3c21 [AZD1390]; details: max 0.3 µM
Procedure, shortened: as §1

Crizotinib = compound: C[C@@H](Oc1cc(-c2cnn(C3CCNCC3)c2)cnc1N)c1c(Cl)ccc(F)c1Cl [Crizotinib]; details: max 10 µM
Procedure, shortened: as §1

Paclitaxel = compound: CC(=O)O[C@H]1C(=O)[C@@]2(C)[C@H]([C@H](OC(=O)c3ccccc3)[C@]3(O)C[C@H](OC(=O)[C@H](O)[C@@H](NC(=O)c4ccccc4)c4ccccc4)C(C)=C1C3(C)C)[C@]1(OC(C)=O)CO[C@@H]1C[C@@H]2O [Paclitaxel]; details: max 3 µM
Procedure, shortened: as §1

Alisertib = compound: COc1cc(Nc2ncc3c(n2)-c2ccc(Cl)cc2C(c2c(F)cccc2OC)=NC3)ccc1C(=O)O [Alisertib]; details: max 10 µM
Procedure, shortened: as §1

Doxorubicin = compound: COc1cccc2c1C(=O)c1c(O)c3c(c(O)c1C2=O)C[C@@](O)(C(=O)CO)C[C@@H]3O[C@H]1C[C@H](N)[C@H](O)[C@H](C)O1 [Doxorubicin]; details: max 1 µM
Procedure, shortened: as §1

Carboplatin = compound: C1CC(C1)(C(=O)[O-])C(=O)[O-].N.N.[Pt+2] [Carboplatin]; details: max 10 µM
Procedure, shortened: as §1

Venetoclax = compound: CC1(C)CCC(CN2CCN(c3ccc(C(=O)NS(=O)(=O)c4ccc(NCC5CCOCC5)c([N+](=O)[O-])c4)c(Oc4cnc5[nH]ccc5c4)c3)CC2)=C(c2ccc(Cl)cc2)C1 [Venetoclax]; details: max 1 µM
Procedure, shortened: as §1

Gemcitabine = compound: Nc1ccn([C@@H]2O[C@H](CO)[C@@H](O)C2(F)F)c(=O)n1 [Gemcitabine]; details: max 0.3 µM
Procedure, shortened: as §1

SN-38 = compound: CCc1c2c(nc3ccc(O)cc13)-c1cc3c(c(=O)n1C2)COC(=O)[C@]3(O)CC [SN-38]; details: max 0.3 µM
Procedure, shortened: as §1

SG3199 = compound: CC1=CN2[C@@H](C1)C=NC3=CC(=C(C=C3C2=O)OC)OCCCCCOC4=C(C=C5C(=C4)N=C[C@@H]6CC(=CN6C5=O)C)OC [SG3199]; details: max 0.001 µM
Procedure, shortened: as §1

Gefitinib = compound: COc1cc2ncnc(Nc3ccc(F)c(Cl)c3)c2cc1OCCCN1CCOCC1 [Gefitinib]; details: max 10 µM
Procedure, shortened: as §1

AZD6738 = compound: C[C@@H]1COCCN1C2=NC(=NC(=C2)C3(CC3)[S@](=N)(=O)C)C4=C5C=CNC5=NC=C4 [AZD6738]; details: max 10 µM
Procedure, shortened: as §1

5-Fluorouracil = compound: O=c1[nH]cc(F)c(=O)[nH]1 [5-Fluorouracil]; details: max 20 µM
Procedure, shortened: as §1

AZD5363 = compound: C1CN(CCC1(C(=O)N[C@@H](CCO)C2=CC=C(C=C2)Cl)N)C3=NC=NC4=C3C=CN4 [AZD5363]; details: max 10 µM
Procedure, shortened: as §1

AZD2811 = compound: CCN(CCO)CCCOc1ccc2c(Nc3cc(CC(=O)Nc4cccc(F)c4)[nH]n3)ncnc2c1 [AZD2811]; details: max 1 µM
Procedure, shortened: as §1

AZD1775 = compound: C=CCn1c(=O)c2cnc(Nc3ccc(N4CCN(C)CC4)cc3)nc2n1-c1cccc(C(C)(C)O)n1 [AZD1775]; details: max 3 µM
Procedure, shortened: as §1

[1] = compound: O=C(Nc1ccc2[nH]nc(-c3ccncc3)c2c1)[C@@H]1CCN(CC(=O)N2CCN(c3ccc(-c4ncccn4)cc3)CC2)C1; details: max 5 µM
Procedure, shortened: as §1

AZD4320 = compound: CN(CC[C@H](CSC1=CC=CC=C1)NC2=C(C=C(C=C2)S(=O)(=O)NC(=O)C3=CC=C(C=C3)N4CCC(CC4)[C@H](C5=CC=CC=C5C6=CC=C(C=C6)Cl)O)S(=O)(=O)C(F)(F)F)CCO [AZD4320]; details: max 1 µM
Procedure, shortened: as §1

AZD5991 = compound: Cc1c2c(nn1C)CSCc1cc(n(C)n1)CSc1cc(c3ccccc3c1)OCCCc1c(C(=O)O)n(C)c3c-2c(Cl)ccc13 [AZD5991]; details: max 1 µM
Procedure, shortened: as §1

SRA737 = compound: N#Cc1cnc(Nc2cc(NC[C@H]3CNCCO3)c(C(F)(F)F)cn2)cn1 [SRA737]; details: max 10 µM
Procedure, shortened: as §1

AZD0156 = compound: CN(C)CCCOc1ccc(-c2ccc3ncc4c(c3c2)n(C2CCOCC2)c(=O)n4C)cn1 [AZD0156]; details: max 3 µM
Procedure, shortened: as §1

Lapatinib = compound: CS(=O)(=O)CCNCc1ccc(-c2ccc3ncnc(Nc4ccc(OCc5cccc(F)c5)c(Cl)c4)c3c2)o1 [Lapatinib]; details: max 10 µM
Procedure, shortened: as §1

Etoposide = compound: COc1cc([C@@H]2c3cc4c(cc3[C@@H](O[C@@H]3O[C@@H]5CO[C@@H](C)O[C@H]5[C@H](O)[C@H]3O)[C@H]3COC(=O)[C@H]23)OCO4)cc(OC)c1O [Etoposide]; details: max 10 µM
Procedure, shortened: as §1

Selumetinib = compound: Cn1cnc2c(F)c(Nc3ccc(Br)cc3Cl)c(C(=O)NOCCO)cc21 [Selumetinib]; details: max 10 µM
Procedure, shortened: as §1

Trametinib = compound: CC(=O)Nc1cccc(-n2c(=O)n(C3CC3)c(=O)c3c(Nc4ccc(I)cc4F)n(C)c(=O)c(C)c32)c1 [Trametinib]; details: max 1 µM
Procedure, shortened: as §1

MK-2206 = compound: NC1(c2ccc(-c3nc4ccn5c(=O)[nH]nc5c4cc3-c3ccccc3)cc2)CCC1 [MK-2206]; details: max 10 µM
Procedure, shortened: as §1

AZD8186 = compound: C[C@@H](Nc1cc(F)cc(F)c1)c1cc(C(=O)N(C)C)cc2c(=O)cc(N3CCOCC3)oc12 [AZD8186]; details: max 10 µM
Procedure, shortened: as §1

Savolitinib = compound: C[C@@H](c1ccc2nccn2c1)n1nnc2ncc(-c3cnn(C)c3)nc21 [Savolitinib]; details: max 1 µM
Procedure, shortened: as §1

AZD5153 = compound: COc1nnc2ccc(N3CCC(c4ccc(OCCN5CCN(C)C(=O)[C@H]5C)cc4)CC3)nn12 [AZD5153]; details: max 1 µM
Procedure, shortened: as §1

Olaparib = compound: O=C(c1cc(Cc2n[nH]c(=O)c3ccccc23)ccc1F)N1CCN(C(=O)C2CC2)CC1 [Olaparib]; details: max 10 µM
Procedure, shortened: as §1

Dasatinib = compound: CC1=C(C(=CC=C1)Cl)NC(=O)C2=CN=C(S2)NC3=CC(=NC(=N3)C)N4CCN(CC4)CCO [Dasatinib]; details: max 2 µM
Procedure, shortened: as §1

AZD7648 = compound: Cc1cc2ncnn2cc1Nc1ncc2c(n1)n(C1CCOCC1)c(=O)n2C [AZD7648]; details: max 10 µM
Procedure, shortened: as §1

Cell Line | IC50, cell viability 72 h (Palbociclib) | IC50, cell viability 72 h (Taselisib) | IC50, cell viability 72 h (Prexasertib) | IC50, cell viability 72 h (AZD1390) | IC50, cell viability 72 h (Crizotinib) | IC50, cell viability 72 h (Paclitaxel) | IC50, cell viability 72 h (Alisertib) | IC50, cell viability 72 h (Doxorubicin) | IC50, cell viability 72 h (Carboplatin) | IC50, cell viability 72 h (Venetoclax) | IC50, cell viability 72 h (Gemcitabine) | IC50, cell viability 72 h (SN-38) | IC50, cell viability 72 h (SG3199) | IC50, cell viability 72 h (Gefitinib) | IC50, cell viability 72 h (AZD6738) | IC50, cell viability 72 h (5-Fluorouracil) | IC50, cell viability 72 h (AZD5363) | IC50, cell viability 72 h (AZD2811) | IC50, cell viability 72 h (AZD1775) | IC50, cell viability 72 h [1] | IC50, cell viability 72 h (AZD4320) | IC50, cell viability 72 h (AZD5991) | IC50, cell viability 72 h (SRA737) | IC50, cell viability 72 h (AZD0156) | IC50, cell viability 72 h (Lapatinib) | IC50, cell viability 72 h (Etoposide) | IC50, cell viability 72 h (Selumetinib) | IC50, cell viability 72 h (Trametinib) | IC50, cell viability 72 h (MK-2206) | IC50, cell viability 72 h (AZD8186) | IC50, cell viability 72 h (Savolitinib) | IC50, cell viability 72 h (AZD5153) | IC50, cell viability 72 h (Olaparib) | IC50, cell viability 72 h (Dasatinib) | IC50, cell viability 72 h (AZD7648)
MEG-01 (Chronic Myelogenous Leukemia) | > 10000 nM | > 10000 nM | 8.09 nM | > 300 nM | 828 nM | 158 nM | 3120 nM | 540 nM | > 10000 nM | > 1000 nM | 51.4 nM | 74.4 nM | > 1 nM | > 10000 nM | 812 nM | > 20000 nM | > 10000 nM | 776 nM | 292 nM | 1220 nM | 309 nM | > 1000 nM | 1180 nM | > 3000 nM | > 10000 nM | 4890 nM | 3410 nM | 38.9 nM | > 10000 nM | > 10000 nM | > 1000 nM | 83.2 nM | > 10000 nM | < 2 nM | > 10000 nM
MSTO-211H (Mesothelioma) | > 10000 nM | > 10000 nM | 54.4 nM | > 300 nM | > 10000 nM | 2950 nM | 3840 nM | 857 nM | > 10000 nM | > 1000 nM | 21.9 nM | 47 nM | > 1 nM | > 10000 nM | 7720 nM | > 20000 nM | > 10000 nM | > 1000 nM | > 3000 nM | > 5000 nM | > 1000 nM | > 1000 nM | > 10000 nM | > 3000 nM | > 10000 nM | 9060 nM | > 10000 nM | 874 nM | > 10000 nM | > 10000 nM | > 1000 nM | > 1000 nM | > 10000 nM | > 2000 nM | > 10000 nM
NOMO-1 (Acute Myeloid Leukemia) | 6660 nM | 1510 nM | 5.79 nM | > 300 nM | 8600 nM | 7.09 nM | 4160 nM | 542 nM | > 10000 nM | 627 nM | 10.1 nM | 7.23 nM | > 1 nM | > 10000 nM | 1660 nM | 2210 nM | > 10000 nM | 905 nM | 215 nM | 591 nM | > 1000 nM | 210 nM | 1160 nM | > 3000 nM | > 10000 nM | 2120 nM | 138 nM | 3.07 nM | > 10000 nM | 9000 nM | > 1000 nM | 50.4 nM | > 10000 nM | > 2000 nM | > 10000 nM
P31-FUJ (Acute Myeloid Leukemia) | > 10000 nM | 3310 nM | 2.72 nM | > 300 nM | 1740 nM | 5.09 nM | 1060 nM | 255 nM | > 10000 nM | 758 nM | 179 nM | 11.7 nM | > 1 nM | > 10000 nM | 1290 nM | > 20000 nM | 2410 nM | 24 nM | 83.1 nM | 1570 nM | 243 nM | 157 nM | 534 nM | > 3000 nM | > 10000 nM | 2760 nM | 8970 nM | 616 nM | 1680 nM | > 10000 nM | > 1000 nM | 148 nM | > 10000 nM | > 2000 nM | > 10000 nM
SK-LMS-1 (Other Solid Carcinomas) | > 10000 nM | 4110 nM | 386 nM | > 300 nM | 9410 nM | 16.1 nM | 8330 nM | 511 nM | > 10000 nM | > 1000 nM | 17.4 nM | 8.12 nM | > 1 nM | > 10000 nM | > 10000 nM | > 20000 nM | > 10000 nM | > 1000 nM | 1630 nM | 4530 nM | > 1000 nM | > 1000 nM | > 10000 nM | > 3000 nM | > 10000 nM | 4430 nM | > 10000 nM | 484 nM | > 10000 nM | 7780 nM | > 1000 nM | > 1000 nM | > 10000 nM | > 2000 nM | > 10000 nM
